Twelve molecules from patent publication US9096591B2, “Tetracyclic compounds” (Medivation Technologies, Inc., priority 2007, dated 2015) can be followed below.

In assay [1] the target is T1, human recombinant serotonin (5-Hydroxytryptamine) 5-HT6 receptor (Homo sapiens, UniProt P50406).
T1 construct: expressed in transfected cells; host or cells: human HeLa cells
The assay is described as follows: Serotonin 5-HT6 radioligand binding ([3H]LSD). Details: Inhibition of ligand binding, Ser. 5-HT6: concentration or dose not given beside the values. Particulars: percent inhibition of specific binding. The text has this: Receptor proteins were filtered and washed, the filters were then counted to determine [3H]LSD specifically bound. […] Biochemical assay results are presented as the percent inhibition of specific binding in Table 6.

For assay [2], the target named is T2, human recombinant histamine H2 receptor (Homo sapiens, UniProt P25021).
T2 construct: expressed in transfected cells; host or cells: CHO-K1 cells
The assay is described as follows: Histamine H2 radioligand binding ([125I]Aminopotentidine). The procedure: Non-specific binding was estimated in the presence of 3 μM Tiotidine. […] Biochemical assay results are presented as the percent inhibition of specific binding in Table 5.
Non-specific binding was estimated in the presence of 3 μM Tiotidine. […] Compounds were screened at 1 μM, using 1% DMSO as vehicle. Biochemical assay results are presented as the percent inhibition of specific binding in Table 6.

Assay [3] addresses T3, human recombinant serotonin (5-Hydroxytryptamine) 5-HT2C receptor (Homo sapiens, UniProt P28335).
T3 construct: expressed in transfected cells; host or cells: CHO-K1 cells
T3 sequence (P28335 33-458): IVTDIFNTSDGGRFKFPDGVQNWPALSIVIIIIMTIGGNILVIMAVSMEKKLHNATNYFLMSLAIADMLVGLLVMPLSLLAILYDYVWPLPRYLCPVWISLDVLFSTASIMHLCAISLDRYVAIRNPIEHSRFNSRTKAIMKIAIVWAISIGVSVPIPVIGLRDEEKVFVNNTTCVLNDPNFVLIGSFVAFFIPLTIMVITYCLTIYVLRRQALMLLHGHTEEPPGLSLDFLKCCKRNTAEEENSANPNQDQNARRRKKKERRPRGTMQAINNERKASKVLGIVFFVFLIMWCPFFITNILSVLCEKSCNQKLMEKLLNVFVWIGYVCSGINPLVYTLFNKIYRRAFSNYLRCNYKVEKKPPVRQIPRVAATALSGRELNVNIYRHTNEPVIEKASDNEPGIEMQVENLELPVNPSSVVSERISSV
The experiment in a line: Serotonin 5-HT2C radioligand binding ([3H]Mesulergine). Details: Inhibition of ligand binding, Ser. 5-HT2C: concentration or dose not given beside the values. Particulars: percent inhibition of specific binding. The procedure:
Compounds of the invention were incubated with 1 nM [^3H]Mesulergine for 60 minutes at 25° C. Non-specific binding was estimated in the presence of 1 μM Mianserin. Receptor proteins were filtered and washed, the filters were then counted to determine [^3H]Mesulergine specifically bound. […] Biochemical assay results are presented as the percent inhibition of specific binding in Table 6.

Assay [4] addresses T4, human recombinant serotonin (5-Hydroxytryptamine) 5-HT2A receptor (Homo sapiens, UniProt P28223).
T4 construct: expressed in transfected cells; host or cells: CHO-K1 cells
The assay is described as follows: Serotonin 5-HT2A radioligand binding ([3H]Ketanserin). Particulars: percent inhibition of specific binding. The protocol:
Compounds of the invention were incubated with 0.5 nM [^3H]Ketanserin for 60 minutes at 25° C. Non-specific binding was estimated in the presence of 1 μM Mianserin. Receptor proteins were filtered and washed, the filters were then counted to determine [^3H]Ketanserin specifically bound. […] Biochemical assay results are presented as the percent inhibition of specific binding in Table 6.

Assay [5] concerns the target T5, human recombinant adrenergic α2A receptor (Homo sapiens, UniProt P08913).
T5 construct: expressed in transfected cells; host or cells: insect Sf9 cells
T5 sequence (P08913 1-465): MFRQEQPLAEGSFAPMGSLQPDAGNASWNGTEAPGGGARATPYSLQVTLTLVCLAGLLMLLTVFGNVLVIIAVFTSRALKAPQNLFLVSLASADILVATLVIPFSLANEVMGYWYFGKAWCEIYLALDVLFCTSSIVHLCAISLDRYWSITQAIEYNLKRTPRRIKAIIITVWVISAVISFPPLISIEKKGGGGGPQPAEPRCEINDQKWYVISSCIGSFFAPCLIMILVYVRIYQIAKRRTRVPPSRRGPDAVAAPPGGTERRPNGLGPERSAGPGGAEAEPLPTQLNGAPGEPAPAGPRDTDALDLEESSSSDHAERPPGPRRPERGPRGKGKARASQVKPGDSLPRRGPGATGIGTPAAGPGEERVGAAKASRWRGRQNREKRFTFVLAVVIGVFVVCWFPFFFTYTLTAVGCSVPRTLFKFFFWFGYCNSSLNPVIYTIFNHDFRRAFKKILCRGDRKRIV
The experiment in a line: Adrenergic α2A radioligand binding ([3H]MK-912). Further details: Inhibition of ligand binding, Adren. alpha2A: concentration or dose not given beside the values. Particulars: percent inhibition of specific binding. The protocol: To evaluate in radioligand binding assays the activity of compounds of the invention, human recombinant adrenergic α2A receptor expressed in insect Sf9 cells (Uhlen S et al. J Pharmacol Exp Ther. 271:1558, 1994) in a modified Tris-HCl buffer (50 mM Tris-HCl, pH 7.4, 12.5 mM MgCl2, 2 mM EDTA) was used. Compounds of invention were incubated with 1 nM [^3H]MK-912 for 60 minutes at 25° C. MK912 is (2S-trans)-1,3,4,5′,6,6′,7,12b-octahydro-1′,3′-dimethyl-spiro[2H-benzofuro[2,3-a]quinolizine-2,4′(1′H)-pyrimidin]-2′(3′H)-one hydrochloride Non-specific binding was estimated in the presence of 10 μM WB-4101 (2-(2,6-Dimethoxyphenoxyethyl)aminomethyl-1,4-benzodioxane hydrochloride). Receptor proteins were filtered and washed, the filters were then counted to determine [^3H]MK-912 specifically bound. […] Biochemical assay results are presented as the percent inhibition of specific binding in Table 6.

The target of assay [6] is T6, human recombinant dopamine D2L receptor (Homo sapiens, UniProt P14416).
T6 construct: expressed in transfected cells; host or cells: CHO cells
The assay is described as follows: Dopamine D2L radioligand binding ([3H]Spiperone). Particulars: percent inhibition of specific binding. The procedure:
Non-specific binding was estimated in the presence of 10 μM Haloperidol. Receptor proteins were filtered and washed, the filters were then counted to determine [^3H]Spiperone specifically bound. […] Biochemical assay results are presented as the percent inhibition of specific binding in Table 6.

Where [7] appears, read: 1 μM compound, 0.1 nM [125I]Aminopotentidine, read-out: Histamine Binding H2, percent inhibition of specific binding.
[8] abbreviates: percent inhibition of specific binding, screened at 1 μM, read-out: Inhibition of ligand binding, Hist. H2.

Like-named read-outs stand apart in the source and are kept apart here.

T4 sequence (P28223 whole entry): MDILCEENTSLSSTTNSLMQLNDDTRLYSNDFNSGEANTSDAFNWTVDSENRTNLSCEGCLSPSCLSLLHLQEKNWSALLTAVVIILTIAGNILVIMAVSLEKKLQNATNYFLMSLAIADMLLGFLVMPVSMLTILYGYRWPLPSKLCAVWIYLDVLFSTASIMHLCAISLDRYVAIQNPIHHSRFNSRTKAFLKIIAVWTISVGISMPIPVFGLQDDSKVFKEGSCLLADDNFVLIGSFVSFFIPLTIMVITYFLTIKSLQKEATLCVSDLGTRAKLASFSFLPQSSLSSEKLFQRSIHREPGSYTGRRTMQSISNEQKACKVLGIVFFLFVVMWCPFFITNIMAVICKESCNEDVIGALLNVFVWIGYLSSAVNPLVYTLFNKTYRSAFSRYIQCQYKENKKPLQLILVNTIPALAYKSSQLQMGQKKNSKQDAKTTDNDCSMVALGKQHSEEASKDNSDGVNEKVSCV
T2 sequence (P25021 whole entry): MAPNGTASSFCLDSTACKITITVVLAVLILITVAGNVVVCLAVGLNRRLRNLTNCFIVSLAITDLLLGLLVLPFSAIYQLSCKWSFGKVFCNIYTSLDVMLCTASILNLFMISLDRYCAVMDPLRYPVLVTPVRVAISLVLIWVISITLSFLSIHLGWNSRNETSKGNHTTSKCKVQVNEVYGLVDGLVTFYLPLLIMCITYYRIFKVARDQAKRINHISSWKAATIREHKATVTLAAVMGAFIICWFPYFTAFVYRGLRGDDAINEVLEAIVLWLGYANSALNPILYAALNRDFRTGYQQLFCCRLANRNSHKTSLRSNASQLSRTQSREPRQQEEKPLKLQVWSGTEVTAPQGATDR
T6 sequence (P14416 whole entry): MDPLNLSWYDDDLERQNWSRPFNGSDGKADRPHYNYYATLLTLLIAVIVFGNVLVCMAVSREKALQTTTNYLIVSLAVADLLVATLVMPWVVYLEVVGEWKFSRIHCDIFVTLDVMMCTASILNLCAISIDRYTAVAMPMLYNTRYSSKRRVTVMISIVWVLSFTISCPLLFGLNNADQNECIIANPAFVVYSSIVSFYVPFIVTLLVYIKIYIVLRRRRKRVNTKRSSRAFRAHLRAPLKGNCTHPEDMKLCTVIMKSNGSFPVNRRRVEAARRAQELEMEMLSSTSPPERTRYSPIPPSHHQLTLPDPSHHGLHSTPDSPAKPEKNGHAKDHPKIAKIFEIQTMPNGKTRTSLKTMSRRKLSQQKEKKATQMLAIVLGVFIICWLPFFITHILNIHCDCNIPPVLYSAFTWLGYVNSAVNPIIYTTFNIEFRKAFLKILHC
T1 sequence (P50406 whole entry): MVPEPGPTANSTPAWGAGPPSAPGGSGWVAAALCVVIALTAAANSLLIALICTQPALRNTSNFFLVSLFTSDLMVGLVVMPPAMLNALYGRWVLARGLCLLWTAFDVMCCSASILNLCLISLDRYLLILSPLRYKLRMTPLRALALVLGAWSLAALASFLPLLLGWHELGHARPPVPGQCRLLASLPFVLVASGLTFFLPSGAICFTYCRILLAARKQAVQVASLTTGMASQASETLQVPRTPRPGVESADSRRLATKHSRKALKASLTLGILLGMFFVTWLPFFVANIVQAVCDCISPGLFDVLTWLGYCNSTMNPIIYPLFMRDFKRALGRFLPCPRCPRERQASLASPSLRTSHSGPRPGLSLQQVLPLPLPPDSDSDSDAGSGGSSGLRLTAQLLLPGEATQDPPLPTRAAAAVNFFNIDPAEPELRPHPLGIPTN

On to `Cc1ccc2c(c1)c1c(n2CCc2ccccn2)CCN(C)C1` [Compound 21, 2,3,4,5-tetrahydro-2,8-dimethyl-5-(2-(pyridin-2-yl)ethyl)-1H-pyrido[4,3-b]indole], for which, in assay [1], the “Inhibition of ligand binding, Ser. 5-HT6” value is reported as 79%. Besides, the inhibition at 1 µM in assay [2] (setting [7]) and in assay [2] (setting [8]) was 45% throughout. Moreover, the “Inhibition of ligand binding, Ser. 5-HT2C” value (“Inhibition … Ser. 5-HT2C” below) in assay [3] is reported as 87%. The “Inhibition of ligand binding, Ser. 5-HT2A” value (“Inhibition … Ser. 5-HT2A” below) in assay [4] turned out to be 94%.

As to `CCN1CCc2c(c3cc(C)ccc3n2CCc2ccncc2)C1` [Compound 27, 2-ethyl-2,3,4,5-tetrahydro-8-methyl-5-(2-(pyridin-4-yl)ethyl)-1H-pyrido[4,3-b]indole], the “Inhibition of ligand binding, Adren. alpha2A” value (from here on “Inhibition … Adren. alpha2A”) in assay [5] was 53%. In addition, the “Inhibition of ligand binding, Ser. 5-HT6” value in assay [1] is on record as 38%. For the same molecule, the inhibition at 1 µM in assay [2] (setting [7]) and in assay [2] (setting [8]) was 32% each time. Further, the “Inhibition … Ser. 5-HT2C” value in assay [3] is on record as 29%. The “Inhibition … Ser. 5-HT2A” value in assay [4] was determined as 63%.

Regarding `Cc1ccc2c(c1)c1c(n2CCc2ccc(C)nc2)CCNC1` [Compound 230, 2,3,4,5-tetrahydro-8-methyl-5-(2-(6-methylpyridin-3-yl)ethyl)-1H-pyrido[4,3-b]indole], the “Inhibition … Adren. alpha2A” value in assay [5] is recorded as 56%. Further, the “Inhibition of ligand binding, Ser. 5-HT6” value in assay [1] is on record as 45%. Further, the inhibition at 1 µM in assay [2] (setting [7]) was 6%; in assay [2] (setting [8]) it was 30%. Moreover, the “Inhibition … Ser. 5-HT2C” value in assay [3] is 36%. Also, the “Inhibition … Ser. 5-HT2A” value in assay [4] is listed as 33%.

As to `CN1CCc2c(c3cc(Cl)ccc3n2CC(=O)N2CCCCC2)C1` [Compound 236, 2-(8-chloro-1,2,3,4-tetrahydro-2-methylpyrido[4,3-b]indol-5-yl)-1-(piperidin-1-yl)ethanone], the “Inhibition … Adren. alpha2A” value in assay [5] is on record as 0%. In assay [1], the “Inhibition of ligand binding, Ser. 5-HT6” value is 18%. For the same molecule, the inhibition at 1 µM in assay [2] (setting [7]) and in assay [2] (setting [8]) was 17% throughout. Also, in assay [6], the “Inhibition of ligand binding, Dop. D2L” value is reported as 1%. For the same molecule, the “Inhibition … Ser. 5-HT2C” value in assay [3] amounted to 54%.

Take `CC1CCN(C(=O)Cn2c3c(c4cc(Cl)ccc42)CN(C)CC3)CC1` [Compound 237, 2-(8-chloro-1,2,3,4-tetrahydro-2-methylpyrido[4,3-b]indol-5-yl)-1-(4-methylpiperidin-1-yl)ethanone]: the “Inhibition … Adren. alpha2A” value in assay [5] is 26%. In assay [1], the “Inhibition of ligand binding, Ser. 5-HT6” value was determined as 20%. In addition, the inhibition at 1 µM in assay [2] (setting [7]) and in assay [2] (setting [8]) was 24% throughout. Moreover, the “Inhibition of ligand binding, Dop. D2L” value in assay [6] was −1%. Besides, the “Inhibition … Ser. 5-HT2C” value in assay [3] came out at 36%.

Consider `CN1CCc2c(c3cc(Cl)ccc3n2CC(=O)N2CCOCC2)C1` [Compound 238, 2-(8-chloro-1,2,3,4-tetrahydro-2-methylpyrido[4,3-b]indol-5-yl)-1-morpholinoethanone], for which the “Inhibition … Adren. alpha2A” value in assay [5] is given as −13%. In addition, the “Inhibition of ligand binding, Ser. 5-HT6” value in assay [1] is listed as 5%. The inhibition at 1 µM in assay [2] (setting [7]) and in assay [2] (setting [8]) was 6% throughout. Further, the “Inhibition of ligand binding, Dop. D2L” value in assay [6] is reported as −1%. Besides, the “Inhibition … Ser. 5-HT2C” value in assay [3] was 20%.

In the case of `CN1CCc2c(c3cc(Cl)ccc3n2CC(=O)N2CCSCC2)C1` [Compound 239, 2-(8-chloro-1,2,3,4-tetrahydro-2-methylpyrido[4,3-b]indol-5-yl)-1-thiomorpholinoethanone], in assay [5], the “Inhibition … Adren. alpha2A” value amounted to 0%. In addition, the “Inhibition of ligand binding, Ser. 5-HT6” value in assay [1] was determined as 8%. The inhibition at 1 µM in assay [2] (setting [7]) and in assay [2] (setting [8]) was 10% throughout. Further, the “Inhibition of ligand binding, Dop. D2L” value in assay [6] is −1%. Moreover, in assay [3], the “Inhibition … Ser. 5-HT2C” value was 65%.

Turning to `CN1CCc2c(c3cc(Cl)ccc3n2CCC(=O)N2CCCC2)C1` [Compound 240, 3-(8-chloro-1,2,3,4-tetrahydro-2-methylpyrido[4,3-b]indol-5-yl)-1-(pyrrolidin-1-yl)propan-1-one], in assay [5], the “Inhibition … Adren. alpha2A” value worked out at 36%. In addition, the “Inhibition of ligand binding, Ser. 5-HT6” value in assay [1] is on record as 25%. The inhibition at 1 µM in assay [2] (setting [7]) and in assay [2] (setting [8]) was 23% in each case. In addition, the “Inhibition of ligand binding, Dop. D2L” value in assay [6] is listed as 9%. In assay [3], the “Inhibition … Ser. 5-HT2C” value is 27%.

For `CN1CCc2c(c3cc(Cl)ccc3n2CC(=O)N2CCCC2)C1` [Compound 243, 2-(8-chloro-1,2,3,4-tetrahydro-2-methylpyrido[4,3-b]indol-5-yl)-1-(pyrrolidin-1-yl)ethanone], the “Inhibition … Adren. alpha2A” value in assay [5] is recorded as 3%. Moreover, the “Inhibition of ligand binding, Ser. 5-HT6” value in assay [1] came out at 12%. Further, the inhibition at 1 µM in assay [2] (setting [7]) and in assay [2] (setting [8]) was 17% in each case. Besides, the “Inhibition of ligand binding, Dop. D2L” value in assay [6] came to 8%. Further, in assay [3], the “Inhibition … Ser. 5-HT2C” value was 33%.

Take `CN1CCc2c(c3cc(Cl)ccc3n2CC(=O)N2CCNCC2)C1` [Compound 244]: the “Inhibition … Adren. alpha2A” value in assay [5] worked out at 22%. The “Inhibition of ligand binding, Ser. 5-HT6” value in assay [1] came to 13%. In addition, the inhibition at 1 µM in assay [2] (setting [7]) and in assay [2] (setting [8]) was 10% each time. In addition, the “Inhibition of ligand binding, Dop. D2L” value in assay [6] is given as 6%. Further, the “Inhibition … Ser. 5-HT2C” value in assay [3] came to 22%.

`CC1CN(C(=O)Cn2c3c(c4cc(Cl)ccc42)CN(C)CC3)CC(C)N1` (centres unmarked) [Compound 245]: the “Inhibition … Adren. alpha2A” value in assay [5] is recorded as 8%. Moreover, the “Inhibition of ligand binding, Ser. 5-HT6” value in assay [1] is listed as −2%. Also, the inhibition at 1 µM in assay [2] (setting [7]) and in assay [2] (setting [8]) was 8% each time. For the same molecule, the “Inhibition of ligand binding, Dop. D2L” value in assay [6] is reported as 4%. Besides, the “Inhibition … Ser. 5-HT2C” value in assay [3] is recorded as 20%.

In the case of `CN1CCc2c(c3cc(Cl)ccc3n2CC(=O)N2CCNC(=O)C2)C1` [Compound 246], the “Inhibition … Adren. alpha2A” value in assay [5] was 21%. Moreover, the “Inhibition of ligand binding, Ser. 5-HT6” value in assay [1] turned out to be 2%. For the same molecule, the inhibition at 1 µM in assay [2] (setting [7]) and in assay [2] (setting [8]) was 16% throughout. Further, the “Inhibition of ligand binding, Dop. D2L” value in assay [6] is 1%. Also, the “Inhibition … Ser. 5-HT2C” value in assay [3] is listed as 59%.

One may read the inhibition as the relative decrease from the control value, in per cent.
